{"source": "patent US20070135383A1", "about": "“Phospholipase inhibitors, including multi-valent phospholipase inhibitors, and use thereof, including as lumen-localized phospholipase inhibitors” (priority 2005, published 2007)", "key": {"[1]": {"biological_target": "T1, mouse group 1B PLA2 (mps PLA2) (Mus musculus, UniProt Q9Z0Y2)", "T1 construct": "made in house; host or cells: E. coli", "T1 sequence (Q9Z0Y2 23-146)": "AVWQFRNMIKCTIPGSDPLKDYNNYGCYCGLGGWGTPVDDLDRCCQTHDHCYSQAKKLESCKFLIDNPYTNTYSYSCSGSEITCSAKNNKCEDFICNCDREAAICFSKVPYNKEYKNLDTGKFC", "assay": "Fluorimetric PPyrPM assay for group 1B PLA2 inhibition (Example 12)", "type": "biochemical", "details": "mouse pancreas secreted PLA2; read-out: ILYPSA IC50 mps PLA2"}, "[2]": {"biological_target": "T2, human group 1B PLA2 (hps PLA2) (Homo sapiens, UniProt P04054)", "T2 construct": "made in house; host or cells: E. coli", "T2 sequence (P04054 23-148)": "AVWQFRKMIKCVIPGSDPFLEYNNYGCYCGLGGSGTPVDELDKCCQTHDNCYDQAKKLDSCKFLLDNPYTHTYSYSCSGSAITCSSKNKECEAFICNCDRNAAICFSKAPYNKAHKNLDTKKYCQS", "assay": "Fluorimetric PPyrPM assay for group 1B PLA2 inhibition (Example 12)", "type": "biochemical", "details": "human pancreas secreted PLA2; read-out: ILYPSA IC50 hps PLA2"}}}
{"smiles": "Cc1c(C(=O)C(N)=O)c2c(OCC(=O)O)cccc2n1CCCCCCCCSCCCCCCCCSCCCCCCCCn1c(C)c(C(=O)C(N)=O)c2c(OCC(=O)O)cccc21", "note": "[ILY-V-24, 2,2′-(1,1′-(8,8′-(Octane-1,8-diylbis(sulfanediyl))bis(octane-8,1-diyl))bis(3-(2-amino-2-oxoacetyl)-2-methyl-1H-indole-4,1-diyl))bis(oxy)diacetic acid]", "values": [{"measurement": "IC50", "setting": "[1]", "result": 1050, "unit": "nM"}, {"measurement": "IC50", "setting": "[2]", "result": 540, "unit": "nM"}]}
